This is an account of results in patent US20040250469A1, “Method for marking hydrocarbons with substituted anthraquinones” (priority 2003, published 2004).

Data set [1] in a line: Absorption maximum and extinction measurement (absorbance, 1 cm path length, 10 mg/L solutions). The data set is classed as physicochemical. As to conditions: for extinction value: 10 mg/L solution, 1 cm path length; for molar extinction coefficient (ε): at λmax, toluene. The method, then: All percentages are weight percentages, unless otherwise indicated. Concentrations in parts per million (“ppm”) are calculated on a weight/volume basis. When a solvent is not specified for measurement of an absorption maximum, a hydrocarbon solvent is preferred. Extinction values are determined by measuring absorption in absorbance units (“AU”) with a 1 cm path length on 10 mg/L solutions. The term “petroleum hydrocarbons” refers to products having a predominantly hydrocarbon composition, although they may contain minor amounts of oxygen, nitrogen, sulfur or phosphorus; petroleum hydrocarbons are derived from petroleum refining processes; they include, for example, lubricating oil, hydraulic fluid, brake fluid, gasoline, diesel fuel, kerosene, jet fuel and heating oil. An “alkyl” group is a hydrocarbyl group having from one to twenty carbon atoms in a linear, branched or cyclic arrangement. Alkyl groups optionally have one or more double or triple bonds. Substitution on alkyl groups of one or more halo, hydroxy or alkoxy groups is permitted; alkoxy groups may in turn be substituted by one or more halo substituents. Preferably, alkyl groups have no halo or alkoxy substituents, and most preferably, alkyl groups are saturated and unsubstituted. A “heteroalkyl” group is an alkyl group in which at least one carbon has been replaced by O, NR, or S, wherein R is hydrogen, alkyl, aryl or aralkyl. An “aryl” group is a substituent derived from an aromatic hydrocarbon compound. An aryl group has a total of from six to twenty ring atoms, and has one or more rings which are separate or fused. An “aralkyl” group is an “alkyl” group substituted by an “aryl” group. A “heterocyclic” group is a substituent derived from a heterocyclic compound having from five to twenty ring atoms, at least one of which is nitrogen, oxygen or sulfur. […] Substitution on aryl or heterocyclic groups of one or more of the following groups: halo, cyano, nitro, hydroxy, alkoxy, alkyl, heteroalkyl, alkanoyl, amino, or amino substituted by one or more of alkyl, aryl, aralkyl, heterocyclic, heteroalkyl or alkanoyl is permitted, with substitution by one or more halo groups being possible on alkyl, heteroalkyl, alkanoyl or alkoxy groups. […] In one preferred embodiment of the invention, aryl and heterocyclic groups are unsubstituted or substituted only by alkyl groups. An “aromatic heterocyclic” group is a heterocyclic group derived from an aromatic heterocyclic compound.
The absorption maxima, λmax, of several substituted anthraquinone dyes of formula (I), measured in xylene, are provided in the following table. For all of the dyes listed, R^4 and R^6 are hydrogen.

A further data set can be described thus: Solubility in xylene. The data set is classed as physicochemical. As to conditions: weight percentage. The method, then:
A mixture of leuco-1,4,5,8-tetrahydroxyanthraquinone (5.91 g), sodium dithionite (1.09 g) and 1-hexanol (175.2 g) was stirred while adding 2-ethylhexylamine (24.08 g). The mixture was heated to reflux (148-152° C.), maintained at reflux for 6-6.5 hours, and then cooled to ambient temperature. The precipitate was collected and washed thoroughly with methanol and water, and dried. The yield of dried isolated product was 7.0 g. Approximately another 1.9 g was present in the mother liquor, for a total yield of 8.9 g (90%). This material has a maximum absorption band (λmax) at a wavelength of 692 nm in xylene, or 688 nm in cyclohexane, with an extinction value of 0.640 AU in xylene and 0.660 AU in cyclohexane for a 10 mg/L solution. The solubility of the title compound in xylene is approximately 20%.

`CCCCc1ccc(Nc2c(C#N)c(C#N)c(Nc3ccc(CCCC)cc3)c3c2C(=O)c2c(Nc4ccc(CCCC)cc4)c(C#N)c(C#N)c(Nc4ccc(CCCC)cc4)c2C3=O)cc1` [1,4,5,8-tetra(4′-n-butylphenylamino)-2,3,6,7-tetracyanoanthraquinone]: in data set [1] (in xylene), the “maximum absorption band (λmax) wavelength” value (“maximum absorption band” below) is on record as 900 nm and the extinction value is on record as 0.19 AU.

On to `CCCCc1ccc(Nc2ccc(Nc3ccc(CCCC)cc3)c3c2C(=O)c2c(Nc4ccc(CCCC)cc4)c(C#N)c(C#N)c(Nc4ccc(CCCC)cc4)c2C3=O)cc1` [1,4,5,8-tetra-(4′-n-butylphenylamino)-2,3-dicyanoanthraquinone], for which, in data set [1] (in xylene), the “maximum absorption band” value stood at 835 nm and the extinction value is 0.342 AU.

With `CCCCC(CC)CNc1ccc(NCC(CC)CCCC)c2c1C(=O)c1c(O)ccc(O)c1C2=O` (centres unmarked) [Example 1, 1,4-di-(2-ethylhexylamino)-5,8-dihydroxyanthraquinone], in data set [1] (in cyclohexane), the “maximum absorption band” value came out at 688 nm and the extinction value was determined as 0.660 AU. Also, in data set [1] (in xylene), the “maximum absorption band” value was 692 nm and the extinction value is recorded as 0.640 AU. Also, the “λmax, nm” value in data set [1] (measured in xylene, dyes of formula (I), R^4 and R^6 hydrogen) was found to be 692 nm. Also, the solubility in xylene entry in the data set “Solubility in xylene” is given as “approximately 20%”.

For the compound `CCCCNc1c(C#N)c(C#N)c(NCCCC)c2c1C(=O)c1ccccc1C2=O` [Example 2, 1,4-di-(n-butylamino)-2,3-dicyanoanthraquinone], in data set [1] (in xylene), the “maximum absorption band” value was found to be 700 nm and the extinction value amounted to 0.23 AU.

With `CCCCc1ccc(Nc2cccc3c2C(=O)c2c(Nc4ccc(CCCC)cc4)ccc(Nc4ccc(CCCC)cc4)c2C3=O)cc1` [Example 4, 1,4,5-tri(4-n-butylphenylamino)anthraquinone], in data set [1] (in toluene), the “maximum absorption band” value turned out to be 675 nm.

Regarding `O=C1c2c(Nc3ccccc3)ccc(Nc3ccccc3)c2C(=O)c2c(Nc3ccccc3)ccc(Nc3ccccc3)c21` [Example 5, 1,4,5,8-tetra(phenylamino)anthraquinone], the “molar extinction coefficient (ε)” value in data set [1] was ~30,500. Moreover, the “maximum absorption band” value in data set [1] (in toluene) is listed as 750 nm.

As for `CCCCc1ccc(Nc2ccc(Nc3ccc(CCCC)cc3)c3c2C(=O)c2c(Nc4ccc(CCCC)cc4)ccc(Nc4ccc(CCCC)cc4)c2C3=O)cc1` [Example 6, 1,4,5,8-tetra(4-n-butylphenylamino)anthraquinone], the “molar extinction coefficient (ε)” value in data set [1] was ~36,900. The “maximum absorption band” value in data set [1] (in toluene) is on record as 762 nm.
